The assay concerns the target T1, mouse TRPM3α2 (mTRPM3) ion channel (Mus musculus, UniProt J9SQF3).
T1 construct: expressed in transfected cells; host or cells: flip-in HEK293
The assay can be described thus: TRPM3 ion channel driven Ca2+ uptake, Fluo-4 AM assay, mTRPM3alpha2 overexpressing flip-in HEK293 cells stimulated with pregnenolone sulfate (50 μM). The class given is cell-based. As to conditions: mTRPM3 overexpressing HEK293 cells stimulated with pregnenolone sulfate (50 μM), activity ranges A, B, C. Here is the method: Monitoring the TRPM3 Ion Channel Driven Ca2+ Uptake.
In order to monitor the inhibition of the mouse TRPM3α2 (mTRPM3) ion channel by the compounds of the invention, a cellular system making use of an mTRPM3alpha2 or hTRPM3 overexpressing cell line (flip-in HEK293) was used. The TRPM3 channel was stimulated/opened with Pregnenolone sulfate (PS) (50 μM) which results in Ca^2+ influx.
For mTRPM3, the intracellular Ca^2+ was measured with a Calcium responsive dye, Fluor-4 AM ester (Invitrogen). Cells were cultured until a confluence of 80-90%, washed with Versene (Invitrogen) and detached from the surface by a short incubation with 0.05% Trypsin (Invitrogen). The trypsination process was stopped by the addition of complete cell culture medium (DMEM, glutamax, 10% FCS, NEAA, Pen-Strep). Cells were collected and resuspended in Krebs buffer without Calcium at RT.
Prior the cell seeding (±2000 cells/well into a black, 384 well plate (Greiner)) the diluted compound was added in the assay plate, together with the PS dissolved in Krebs buffer containing Calcium. […] Directly after cell addition the plates were read on an Envision fluorescence reader (Perkin Elmer) by an Excitation of 485 nm and emission at 535 nm.
Channel inhibition was calculated compared to a non-PS stimulated control versus a condition stimulated with PS (50 μM) with vehicle. The ability of the compounds of the invention to inhibit this activity was determined as: Percentage inhibition=[1−((RFU determined for sample with test compound present−RFU determined for sample with positive control inhibitor) divided by (RFU determined in the presence of vehicle−RFU determined for sample with positive control inhibitor))]*100.
The activities of the Example compounds cpd 001-262 tested are depicted in the table below. All tested compounds show an activity in the Fluo-4 AM assay. The activity ranges A, B and C refer to IC50 values in the Fluo-4 AM assay as follows: “A”: IC50<1 μM; “B”: 1 μM≤IC50≤20 μM and “C”: IC50>20 μM.
T1 sequence (J9SQF3 1-1709 isoform J9SQF3-12): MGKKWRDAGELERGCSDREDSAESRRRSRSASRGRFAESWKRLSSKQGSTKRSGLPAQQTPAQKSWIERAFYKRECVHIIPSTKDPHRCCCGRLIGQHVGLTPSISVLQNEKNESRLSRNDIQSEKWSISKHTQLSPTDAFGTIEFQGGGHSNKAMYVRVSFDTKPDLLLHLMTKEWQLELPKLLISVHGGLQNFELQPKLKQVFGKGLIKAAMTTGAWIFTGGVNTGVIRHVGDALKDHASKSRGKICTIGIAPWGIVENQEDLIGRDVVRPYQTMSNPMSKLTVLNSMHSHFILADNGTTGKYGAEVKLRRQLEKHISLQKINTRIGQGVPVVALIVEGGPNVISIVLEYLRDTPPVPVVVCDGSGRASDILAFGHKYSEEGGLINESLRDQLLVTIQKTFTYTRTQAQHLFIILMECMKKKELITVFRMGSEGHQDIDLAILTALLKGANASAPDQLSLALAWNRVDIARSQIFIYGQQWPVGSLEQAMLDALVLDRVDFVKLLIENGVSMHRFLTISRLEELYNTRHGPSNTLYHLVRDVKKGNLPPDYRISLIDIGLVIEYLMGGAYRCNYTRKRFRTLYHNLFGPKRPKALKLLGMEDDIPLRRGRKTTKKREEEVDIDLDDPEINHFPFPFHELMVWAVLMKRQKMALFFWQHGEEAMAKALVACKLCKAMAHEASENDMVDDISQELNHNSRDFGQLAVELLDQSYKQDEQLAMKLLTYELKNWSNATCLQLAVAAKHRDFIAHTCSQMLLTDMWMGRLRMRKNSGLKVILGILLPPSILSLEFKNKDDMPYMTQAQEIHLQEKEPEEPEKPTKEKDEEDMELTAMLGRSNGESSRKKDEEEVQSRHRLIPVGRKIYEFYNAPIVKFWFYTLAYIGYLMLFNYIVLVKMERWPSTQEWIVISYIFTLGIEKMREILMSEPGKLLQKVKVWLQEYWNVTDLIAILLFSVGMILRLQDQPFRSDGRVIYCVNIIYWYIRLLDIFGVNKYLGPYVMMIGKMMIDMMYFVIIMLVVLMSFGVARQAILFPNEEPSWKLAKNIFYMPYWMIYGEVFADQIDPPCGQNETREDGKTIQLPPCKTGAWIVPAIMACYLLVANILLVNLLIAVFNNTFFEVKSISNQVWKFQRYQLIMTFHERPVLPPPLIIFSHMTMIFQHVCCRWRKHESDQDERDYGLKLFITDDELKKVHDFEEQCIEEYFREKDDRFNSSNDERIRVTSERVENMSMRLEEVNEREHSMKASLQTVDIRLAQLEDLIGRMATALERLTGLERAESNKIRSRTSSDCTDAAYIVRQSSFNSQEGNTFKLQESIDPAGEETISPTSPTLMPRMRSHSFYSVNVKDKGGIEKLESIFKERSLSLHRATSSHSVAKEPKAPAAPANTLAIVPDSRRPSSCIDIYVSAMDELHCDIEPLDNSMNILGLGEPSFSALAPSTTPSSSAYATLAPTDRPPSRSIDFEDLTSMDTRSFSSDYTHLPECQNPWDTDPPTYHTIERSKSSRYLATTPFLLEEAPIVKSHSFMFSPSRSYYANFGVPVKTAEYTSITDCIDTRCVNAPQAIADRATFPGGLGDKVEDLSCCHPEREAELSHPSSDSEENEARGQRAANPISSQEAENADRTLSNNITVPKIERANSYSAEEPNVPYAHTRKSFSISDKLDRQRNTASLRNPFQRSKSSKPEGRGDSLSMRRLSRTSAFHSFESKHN
Turning to `Cc1ncsc1COc1ccc2nn(C)c(C(=O)NC3(CO)CCOCC3)c2c1` [Cpd 001, N-[4-(hydroxymethyl)oxan-4-yl]-2-methyl-5-[(4-methyl-1,3-thiazol-5-yl)methoxy]-2H-indazole-3-carboxamide], the IC50 is 1 to 20 µM.

With `Cn1nc2ccc(OCc3ccccn3)cc2c1C(=O)NC(CCO)c1ccc(F)cc1` (single isomer, unassigned) [Cpd 223 - En1], the IC50 is greater than 20 µM.

Consider `Cn1nc2ccc(OCc3ccccn3)cc2c1C(=O)NC(CO)CC(F)F` (single isomer, unassigned) [Cpd 228 - En2], for which the IC50 is greater than 20 µM.

`Cc1ncsc1COc1ccc2nn(C)c(C(=O)NC3(CO)CCNC3=O)c2c1` (single isomer, unassigned) [Cpd 163 - En2, N-[3-(hydroxymethyl)-2-oxopyrrolidin-3-yl]-2-methyl-5-[(4-methyl-1,3-thiazol-5-yl)methoxy]-2H-indazole-3-carboxamide] returned an IC50 of 1 to 20 µM.

Molecule `Cn1nc2ccc(OCc3ccccc3F)cc2c1C(=O)NC(C)(CO)CC(F)F` (single isomer, unassigned) [Cpd 203 - En2] had an IC50 of less than 1 µM.

Turning to `COc1ccc2nn(C)c(C(=O)NC(C)(CO)C(N)=O)c2c1` (single isomer, unassigned) [Cpd 172 - En1], the IC50 was greater than 20 µM.

`Cn1nc2ccc(OCc3ccccc3F)cc2c1C(=O)NC1(CO)CCNC1=O` (single isomer, unassigned) [Cpd 171 -En2]: the IC50 was 1 to 20 µM.

As for `Cn1nc2ccc(OCc3ccccc3)cc2c1C(=O)NC1CCN(CC(F)(F)F)C1` (stereo not drawn) [Cpd 060, 5-(benzyloxy)-2-methyl-N-[1-(2,2,2-trifluoroethyl)pyrrolidin-3-yl]-2H-indazole-3-carboxamide], the IC50 was 1 to 20 µM.

Regarding `Cc1ncc(COc2ccc3nn(C)c(C(=O)NCC(F)F)c3c2)s1` [Cpd 150, N-(2,2-difluoroethyl)-2-methyl-5-[(2-methyl-1,3-thiazol-5-yl)methoxy]-2H-indazole-3-carboxamide], the IC50 was 1 to 20 µM.

With `Cn1nc2ccc(OCc3ccccn3)cc2c1C(=O)NCC(F)(F)c1ccccc1` [Cpd 208, N-(2,2-difluoro-2-phenylethyl)-2-methyl-5-[(pyridin-2-yl)methoxy]-2H-indazole-3-carboxamide], the IC50 was greater than 20 µM.

Turning to `Cn1nccc1COc1ccc2nn(C)c(C(=O)NC3CCN(CCO)C3=O)c2c1` (stereo not drawn) [Cpd 039, N-[1-(2-hydroxyethyl)-2-oxopyrrolidin-3-yl]-2-methyl-5-[(1-methyl-1H-pyrazol-5-yl)methoxy]-2H-indazole-3-carboxamide], the IC50 is greater than 20 µM.

Regarding `Cn1nc2ccc(OCC3CC3)cc2c1C(=O)NC1(CO)CCNC1=O` (single isomer, unassigned) [Cpd 161 - En2], the IC50 was greater than 20 µM.

Take `Cn1nccc1COc1ccc2nn(C)c(C(=O)NC(C)(C)CO)c2c1` [Cpd 015, N-(1-hydroxy-2-methylpropan-2-yl)-2-methyl-5-[(1-methyl-1H-pyrazol-5-yl)methoxy]-2H-indazole-3-carboxamide]: the IC50 was in the range of 1 to 20 µM.

Consider `Cn1nc2ccc(OCc3cccnc3)cc2c1C(=O)NC1(CO)CCNC1=O` (single isomer, unassigned) [Cpd 180 - En2], for which the IC50 was in the range of 1 to 20 µM.

As to `Cn1nc2ccc(OCc3cccnc3)cc2c1C(=O)NC1(C(N)=O)CCOC1` (single isomer, unassigned) [Cpd 168 - En2], the IC50 was less than 1 µM.

The molecule `Cc1ncc(COc2ccc3nn(C)c(C(=O)N[C@@H](CO)C(N)=O)c3c2)o1` [Cpd 141, (2S)-3-hydroxy-2-({2-methyl-5-[(2-methyl-1,3-oxazol-5-yl)methoxy]-2H-indazol-3-yl}formamido)propanamide] displayed a half-maximal inhibitory concentration (IC50) of less than 1 µM.

On to `Cn1nc2ccc(OCc3ccccn3)cc2c1C(=O)NC1CCNC1` (single isomer, unassigned) [Cpd 216 - En2], for which the IC50 lay within 1 to 20 µM.

In turn, `Cn1nc2ccc(OCc3cccnc3C(F)(F)F)cc2c1C(=O)NC1(C(N)=O)CCOC1` (single isomer, unassigned) [Cpd 178 - En1] came in with an IC50 of less than 1 µM.

The values above are taken from patent US20250376461A1, “INDAZOLE DERIVATIVES FOR TREATING TRPM3-MEDIATED DISORDERS” (Katholieke Universiteit Leuven, priority 2022, published 2025).
